Laboratory results: patent US9364566B2, “Aqueous formulation for selective targeting and delivering gene to cancer cells” (Council of Scientific and Industrial Research, priority 2006, dated 2016)

Tested on: non-cancer cells
Experiment: Toxicity to non-cancer cells
Assay type: cell-based
Settings: at the concentration at which dexamethasone is used in the formulation
Source text: In the context the present invention stands with complete patentability because the formulation uses our own patented cationic lipid along side a secondary co-lipid dexamethasone, and a common, generic, glucocorticoid. The dexamethasone is not modified at all and is used as such. […] The use of dexamethasone for the targeted gene delivery to cancer is not documented in any of these papers.
Cell-Culture—MCF-7, CHO, A549 cells were purchased from National Center for Cell Sciences (Pune, India) and were mycoplasma free. Cells were cultured in DMEM medium (Sigma Chemical Co., St. Louis, Mo.) containing 10% fetal bovine serum (Sigma Chemical Co., St. Louis, Mo.) and 1% penicillin-streptomycin at […] in a humidified atmosphere of 5% CO2 in air. Cultures of 85-90% confluency were used for all of the experiments. The cells were trypsinized, counted, subcultured in 96-well plates for transfection and viability studies. The cells were allowed to adhere overnight before they were used for experiments.

C[C@@H]1C[C@H]2[C@@H]3CCC4=CC(=O)C=C[C@]4(C)[C@@]3(F)[C@@H](O)C[C@]2(C)[C@@]1(O)C(=O)CO [dexamethasone] was tested, and the “toxicity to non-cancer cells” value was “did not induce any toxicity”.
